Test results published in PubChem BioAssay AID1645867 (Buhrlage Lab, Dana-Farber Cancer Institute and Novartis …, 2021).
Active and inactive are the calls of the source. How the calls were made is not given here.

What follows are compounds tested against Ubiquitin carboxyl-terminal hydrolase isozyme L1 (Homo sapiens) (UniProt P09936) (assay: biochemical concentration-response of UCH-L1 DUB inhibitors, hit verification (AID 1645867)). Settings: recombinant UCHL1 deubiquitinase activity assay.
Chain of Ubiquitin carboxyl-terminal hydrolase isozyme L1 (Homo sapiens) (P09936 whole entry, looked up): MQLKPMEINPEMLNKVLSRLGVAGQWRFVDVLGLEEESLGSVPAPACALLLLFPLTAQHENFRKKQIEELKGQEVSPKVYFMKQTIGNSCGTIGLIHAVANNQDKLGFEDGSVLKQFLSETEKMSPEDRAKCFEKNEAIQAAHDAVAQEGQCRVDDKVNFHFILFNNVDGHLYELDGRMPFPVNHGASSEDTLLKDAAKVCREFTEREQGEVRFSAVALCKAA

SMILES | IC50
CCn1cc2c(n1)c(=O)n(Cc1ccccc1)c(=O)n2CC(=O)Nc1ccc(C)cc1C | > 25 µM (inactive)
CCCCCC(O)c1c(O)cc2c(c1O)C(=O)c1c(O)cc(O)cc1C2=O (stereo unspecified) | > 25 µM (inactive)
Cc1ccc(-n2cc(-c3noc(C(=O)Nc4ccc(F)cc4C)n3)nn2)cc1 | > 25 µM (inactive)
Cc1ccc2[nH]c3c(=O)n(Cc4ccc(N(C)C)cc4)cnc3c2c1 | > 25 µM (inactive)
O=C(Nc1ccc(F)cc1)N1C[C@@H]2c3nccn3-c3ccccc3[C@@H]2C1 | > 25 µM (inactive)
CCOc1ccc(C(c2c(NC(=O)c3ccccc3)sc(C)c2C)N2CCN(CCO)CC2)cc1 (stereo unspecified) | > 25 µM (inactive)
O=C(COc1ccc(N2CC(C(=O)NCc3ccccc3)CC2=O)cc1)Nc1ccc(F)cc1 (stereo unspecified) | > 25 µM (inactive)
O=C(COc1ccc(N2CC(C(=O)NCc3ccc4c(c3)OCO4)CC2=O)cc1)Nc1ccc(F)cc1 (stereo unspecified) | > 25 µM (inactive)
O=C(COc1ccc(Cl)cc1Cl)Nc1ccccc1-c1nc2ccccc2[nH]1 | > 25 µM (inactive)
c1ccc(-c2ccc(NCc3ccc4c(c3)OCO4)nn2)cc1 | > 25 µM (inactive)
O=C(c1ccccc1F)c1cc(Cl)ccc1NC(=O)C1CCCO1 (stereo unspecified) | > 25 µM (inactive)
O=C(CSc1nc2cc(C(F)(F)F)ccc2s1)NCC(=O)c1ccccc1 | > 25 µM (inactive)
O=C1[C@H]2Cc3c([nH]c4ccccc34)CN2C(=O)CN1Cc1ccc(F)cc1 | > 25 µM (inactive)
COc1ccc(CCN2COc3c(cc(Cl)c4cccnc34)C2)cc1OC | > 25 µM (inactive)
O=C(NCCc1nc2ccccc2n1Cc1ccccc1F)c1ccco1 | > 25 µM (inactive)
CC(C)Cc1ccc(-c2cc(-c3ccc(C(F)(F)F)cc3)c(C#N)c(=O)[nH]2)cc1 | > 25 µM (inactive)
COc1ccc(NC(=O)Cn2c(=O)n(CCC(=O)NCc3ccccc3)c(=O)c3sccc32)cc1Cl | > 25 µM (inactive)
O=C(c1cncs1)N1CCc2[nH]nc(Nc3ccccc3)c2C1 | > 25 µM (inactive)
Cc1ccc(CNC(=O)Cn2c(=O)n(CCCC(=O)NCc3ccc(F)cc3)c(=O)c3ccccc32)cc1 | > 25 µM (inactive)
O=C(CSc1cn(Cc2ccccc2Cl)c2ccccc12)N1CCOCC1 | > 25 µM (inactive)
C=C1CCC2[C@](C)(CCC[C@]2(C)C(=O)OC)[C@H]1CCc1ccoc1/C=C/C(=O)O (stereo partly specified) | > 25 µM (inactive)
Cn1c2ccccc2c(=O)c2c(=O)n(-c3cccc(Cl)c3)c(-c3cccs3)nc21 | > 25 µM (inactive)
N#C/C(=C\c1ccc(OCc2cccc(C(=O)O)c2)cc1)c1ccc(F)cc1 | > 25 µM (inactive)
O=C(Nc1c(C(=O)N2CCCCCC2)oc2ccccc12)C1CCCC1 | > 25 µM (inactive)
O=C1CC(c2ccco2)Cc2[nH]c(=O)c(-c3nc(-c4ccc(Cl)cc4)cs3)cc21 (stereo unspecified) | > 25 µM (inactive)

SMILES | IC50
O=C(CN1CCOCC1)Nc1ccc(NC(=O)c2ccc(Cl)cc2)cc1 | > 25 µM (inactive)
CC[C@H](C)[C@H](NC(=O)[C@H]([C@@H](C)CC)N(C)C(C)=O)C(=O)N[C@H](C(=O)N[C@@H](CC(C)C)C(=O)C1(C)CO1)[C@@H](C)O (stereo partly specified) | > 25 µM (inactive)
COc1ccc(CNC(=O)CCCc2nnc3c(=O)n(-c4cc(C)cc(C)c4)ccn23)cc1 | > 25 µM (inactive)
Nc1cccc(C(=O)CC2(O)C(=O)N(Cc3ccc(Cl)cc3)c3ccccc32)c1 (stereo unspecified) | > 25 µM (inactive)
O=C(COc1ccc(Cl)cc1)Nc1noc(-c2cccs2)n1 | > 25 µM (inactive)
Cc1c(-c2nsc(NC(=O)c3ccc(Cl)cc3)n2)nnn1-c1ccccc1F | > 25 µM (inactive)
CCOc1cccc(-c2noc(-c3nn(-c4ccccc4)ccc3=O)n2)c1 | > 25 µM (inactive)
Cc1ccccc1NC(=O)Cn1cc(S(=O)(=O)Cc2ccccc2)c2ccccc21 | > 25 µM (inactive)
O=C(NCC(O)c1ccc([N+](=O)[O-])cc1)c1cccc(S(=O)(=O)N2CCOCC2)c1 (stereo unspecified) | > 25 µM (inactive)
O=C(O)c1c(CNC2CCCCCC2)c2ccccc2n1Cc1ccc(F)cc1 | > 25 µM (inactive)
Cc1nnc(-c2ccc3ccn(CC(=O)N4CCN(c5ccccc5)CC4)c3c2)o1 | > 25 µM (inactive)
C=C(CCC(C)(C)/C=C/CC/C(C)=C/COC(COP(=O)(O)O[C@@H]1OC(C(N)=O)[C@@](C)(O)[C@H](OC(N)=O)C1O[C@@H]1OC(CO[C@@H]2OC(CO)[C@H](O)[C@H](O)C2O)[C@H](O[C@@H]2OC(CO)[C@H](O[C@@H]3OC(C(=O)NC4=C(O)CCC4=O)[C@H](O)[C@H](O)C3O)[C@H](O)C2NC(C)=O)C(O)[C@@H]1NC(C)=O)C(=O)O)CC1C(=C)CCCC1(C)C (stereo partly specified) | > 25 µM (inactive)
CCOc1ccccc1NC(=O)Cn1c(=O)n(CCCC(=O)NCc2ccc(C)cc2)c(=O)c2sccc21 | > 25 µM (inactive)
COc1ccc(NC(=O)Cn2c(C)cc(=O)n3nc(-c4cccc(C)c4)nc23)cc1 | > 25 µM (inactive)
CC(CCc1ccccc1)NCc1c(C(=O)O)n(Cc2ccccc2)c2ccccc12 (stereo unspecified) | > 25 µM (inactive)
CC(c1ccccc1)N1CC(O)=C(c2nc3ccccc3s2)C1=N (stereo unspecified) | > 25 µM (inactive)
Cn1c(=O)c(N2CCOCC2)nc2c(OCc3ccccc3)nc(N)nc21 | > 25 µM (inactive)
CO/C1=C\C(C)=C\[C@@H](C)[C@@H](O)[C@H](C)C/C(C)=C/C=C/[C@H](OC)[C@@H]([C@@H](C)[C@@H](O)[C@H](C)[C@@]2(O)C[C@@H](OC(=O)/C=C/C(=O)NC3=C(O)CCC3=O)[C@H](C)[C@@H](C(C)C)O2)OC1=O | > 25 µM (inactive)
CCc1ccc(NC(=O)Cn2c(=O)n(Cc3ccccc3)c(=O)c3nn(CC)cc32)cc1 | > 25 µM (inactive)
CC(=O)O[C@@H]1C(=O)C2=C(C(=O)C[C@H]3C(C)(C)C(=O)CC[C@]23C)[C@]2(C)C(=O)C[C@H]([C@H](C)CC(=O)C[C@@H](C)C(=O)O)[C@@]12C | > 25 µM (inactive)
N#CCCN(C(=O)c1cc2c(s1)-c1ccccc1OC2)c1ccccc1 | > 25 µM (inactive)
CCc1ccc(NC(=O)C2CCN(c3nc4nc[nH]c(=O)c4s3)CC2)cc1 | > 25 µM (inactive)
Cc1oncc1C(=O)N1CC[C@H]2CO[C@H](CN3CCOCC3)[C@H]2C1 | > 25 µM (inactive)
Cc1ccc(C2SCC(=O)Nc3c2c(=O)[nH]n3C2CCCCC2)cc1 (stereo unspecified) | > 25 µM (inactive)

Further lines, results first:

IC50 | SMILES
> 25 µM (inactive) | C(=C\c1nc(-c2cccc(-c3ccn[nH]3)c2)no1)/c1ccco1
> 25 µM (inactive) | Cc1cc(Nc2ncc(Cl)cc2Cl)n(-c2ccccc2)n1
> 25 µM (inactive) | Cc1ccccc1CCNCc1c(C(=O)O)n(Cc2ccc(Cl)cc2)c2ccccc12
> 25 µM (inactive) | COc1cccc(NC(=O)Cn2c3ccccc3n3c(=O)cc(-c4ccccc4)nc23)c1
> 25 µM (inactive) | COc1ccc(OC)c2c(C)cc(N3CC(C)CC(C)C3)nc12 (stereo unspecified)
> 25 µM (inactive) | COc1ccc(C)cc1NC(=O)COc1ncnc2ccccc12
> 25 µM (inactive) | COC(=O)c1ccc2c(=O)n(CCCCCC(=O)NCCc3ccc(S(N)(=O)=O)cc3)c(=O)[nH]c2c1
> 25 µM (inactive) | Cc1ccc(NC(=O)c2nnn(CC(=O)Nc3cccc(C)c3C)c2N)cc1C
> 25 µM (inactive) | O=C1CC2(C(=O)N(Cc3ccc(Cl)cc3)c3ccccc32)c2cn[nH]c2N1 (stereo unspecified)
1.97 µM | O=C1c2ccccc2C(=O)c2c(O)c(O)cc(O)c21
> 25 µM (inactive) | CC(C)NC(=O)Cn1ccn2nc(-c3ccc(Cl)cc3)cc2c1=O
> 25 µM (inactive) | COc1ccc2c(CNCCC3=CCCCC3)c(C(=O)O)n(Cc3ccc(F)cc3)c2c1
> 25 µM (inactive) | O=C(Nc1ccc2c(c1)OCO2)c1cncc(NS(=O)(=O)c2ccccc2)c1
> 25 µM (inactive) | O=C(Nc1ccc(Cl)c(Cl)c1)c1cccc(N2CCCCS2(=O)=O)c1
> 25 µM (inactive) | O=C(Nc1ccc(C(F)(F)F)cc1)C1CC(=O)N(c2ccc3c(c2)OCCO3)C1 (stereo unspecified)
> 25 µM (inactive) | Cc1ccc(C(=O)N[C@@H](Cc2ccccc2)C(=O)N2CCC3(CC2)NCCc2[nH]cnc23)cc1C
> 25 µM (inactive) | N=C1/C(=C/c2cn(Cc3ccccc3F)c3ccccc23)C(=O)N=C2SC(C(F)(F)F)=NN12
> 25 µM (inactive) | COc1ccc(-c2nc(CNC(=O)c3ccccc3C)cs2)cc1
> 25 µM (inactive) | CN(C)CCN1C(=O)c2cc3occc3n2CC1(C)C(=O)NC1CCCCCC1 (stereo unspecified)

IC50 | SMILES
> 25 µM (inactive) | CSc1cccc(NC(=O)C2C3C=CC4(O3)C2C(=O)N(C2CCCCCC2)C4C(=O)NC2CCCCC2)c1 (stereo unspecified)
> 25 µM (inactive) | COc1cccc(C(CC(=O)Nc2ccc3c(c2)OCCO3)n2cccc2)c1 (stereo unspecified)
> 25 µM (inactive) | CC(NC(=O)c1ccccc1)c1nc2ccccc2n1CC(=O)Nc1ccc2c(c1)OCO2 (stereo unspecified)
> 25 µM (inactive) | CC(=O)NS(=O)(=O)c1ccc(NC(=O)/C=C/c2cn(-c3ccccc3)nc2-c2ccccc2)cc1
> 25 µM (inactive) | N#Cc1c(-c2ccc(Cl)cc2)ccn2nc(CCC(=O)O)nc12
> 25 µM (inactive) | Cc1cccc(-c2nc(NC(=O)COc3ccc(F)cc3)no2)c1
> 25 µM (inactive) | O=C(Nc1cnc(-c2cccc(Cl)c2)nc1)C1CCC1
> 25 µM (inactive) | COc1c2nc3ccccc3oc-2cc(=O)c1OC
> 25 µM (inactive) | CSc1ccc([C@H]2[C@@H](C(=O)O)c3ccccc3C(=O)N2Cc2ccc(F)cc2)cc1
> 25 µM (inactive) | O=c1[nH]c(=O)n(Cc2ccccc2)c2c1CN(CCc1ccccc1)CN2
9.26 µM | COc1c(O)cc(CC(=O)O)c(C(C)=O)c1O
> 25 µM (inactive) | O=C(COc1ccc(Cl)cc1Cl)Nc1ccc2[nH]c(=O)[nH]c2c1
> 25 µM (inactive) | O=[N+]([O-])c1ccc(C(O)CN2CCN(Cc3ccccc3)CC2)cc1 (stereo unspecified)
> 25 µM (inactive) | COc1cccc(CNc2ccc(-c3nc(-c4ccccc4)no3)nn2)c1
> 25 µM (inactive) | O=C1CC(c2ccccc2O)Oc2ccccc21 (stereo unspecified)
> 25 µM (inactive) | COc1cc(OC)cc(N2C(=O)N(CC(=O)c3ccc(Br)cc3)c3ccccc3S2(=O)=O)c1
> 25 µM (inactive) | Cn1cc(NC(=O)Nc2cccc(C(F)(F)F)c2)c2ccccc2c1=O
> 25 µM (inactive) | CC(C)(C)n1nc2c(c1NC(=O)Cc1ccccc1)CSC2
